# Assay results taken from US12551524B2 (U.S. NUTRACEUTICALS, INC., priority 2021, dated 2026).
# Assays:
# [1] = tested on: men with mild to moderate androgenic alopecia; conditions: 1 milligram per day, 24 months, 100 men; cited from earlier work
# [2] = tested on: normal shaved mice; conditions: after about 20 days; cited from earlier work
# [3] = target: T1, 5α-Reductase Type 1 enzyme (Homo sapiens, UniProt P18405); experiment: Inhibition of 5α-Reductase Type 1; assay type: biochemical
# T1 sequence (P18405 1-259): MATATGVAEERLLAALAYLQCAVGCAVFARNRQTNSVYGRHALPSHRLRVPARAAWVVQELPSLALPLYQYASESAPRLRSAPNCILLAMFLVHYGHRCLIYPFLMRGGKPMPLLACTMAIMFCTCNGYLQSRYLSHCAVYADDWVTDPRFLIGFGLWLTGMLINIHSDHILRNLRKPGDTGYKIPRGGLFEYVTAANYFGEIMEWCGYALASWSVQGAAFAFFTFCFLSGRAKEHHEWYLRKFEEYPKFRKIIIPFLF
# Description: (§1) The different free fatty acids of medium and long saturated chains and long unsaturated chains are shown, together with esterified fatty acids, oxidized fatty acids, fatty alcohols, phytosterols, and other components. The magnitude of the activity is designated by “none,” “moderate” or “very active” (FIG. 3). The various constituents shown in the table of FIG. 2 are also shown and listed as free fatty acid molecules with: a) medium, saturated chains, b) long, saturated chains, and c) long unsaturated chains. There are esterified fatty acids, oxidized fatty acids, and fatty alcohols. These tables support other evidence that the five active free fatty acids for prostate and hair health are lauric, myristic, oleic, linoleic and linolenic free fatty acids.
# Reference is now made to FIGS. 7B and 7C showing the use of a supercritical CO2 extracted LSESr and Permixon®.
# [4] = target: T2, 5α-Reductase Type 2 enzyme (Homo sapiens, UniProt P31213); experiment: Inhibition of 5α-Reductase Type 2 (Inhibition Experiments 1 and 2); assay type: biochemical
# T2 sequence (P31213 1-254): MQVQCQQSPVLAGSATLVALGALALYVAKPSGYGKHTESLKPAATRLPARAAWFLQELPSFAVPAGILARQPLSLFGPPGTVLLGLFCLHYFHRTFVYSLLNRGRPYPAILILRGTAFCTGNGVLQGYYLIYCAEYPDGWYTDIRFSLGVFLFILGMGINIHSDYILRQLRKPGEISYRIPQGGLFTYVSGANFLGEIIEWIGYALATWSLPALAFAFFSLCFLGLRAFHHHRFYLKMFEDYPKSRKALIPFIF
# Description: as §1
# Data are shown in the graphs and bar charts of FIGS. 5 and 6 where data are reported as the effectiveness to inhibit enzyme activity (IC50). […]
# Inhibition Experiment 2 shown in FIG. 6 determined the possible impact of Permixon® product matrix (PEG) on an in vitro assay and the pegylated and conventional ultra-high purity supercritical CO2 extract having the PEG matrix (U4602-PEG) was compared to the commercially available Permixon® and the conventional unpegylated product (U4602) for their ability to inhibit the 5α-Reductase 2 enzyme. […]
compound,measurement,setting,value
CC(C)(C)NC(=O)[C@H]1CC[C@H]2[C@@H]3CC[C@H]4NC(=O)C=C[C@]4(C)[C@H]3CC[C@]12C [finasteride],men who noted an improvement,[1],68%
CCCCC/C=C\C/C=C\CCCCCCCC(=O)O [linoleic acid],hair growth,[2],about 100%
CCCCCCCC/C=C\CCCCCCCC(=O)O [oleic acid],effect on 5α-Reductase-1 (in words),[3],especially effective
same,effect on 5α-Reductase-2 (in words),[4],not as much
